In the supplement of paper PMC11451515:

Key:
P12-Ichikawa [1] = assay: AUC of viability dose-response curve (% viability x log10 dose units); higher = less sensitive; settings: 48 h
Summary of the method: (§1)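 Leukemia cells adapted to each medium were seeded in 1536-well plates (500 or 1000 cells/well) and given library compounds in DMSO for 48 h at 37°C. The 11 threefold doses spanned 47 μM to 0.79 nM, and CellTiter-Glo One luminescence was normalised per plate to DMSO and cell-free wells before four-parameter log-logistic fitting on log10 dose. Area under the curve was integrated with the trapezoidal rule, scaling curves above full viability and removing curves that failed quality control.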

NOMO1 [2] = assay: as above; settings: 48 h
Summary of the method: as §1

SEM cells [3] = assay: as above; settings: 48 h
Summary of the method: as §1

P12-Ichikawa [4] = assay: cell viability relative to DMSO control; higher = less cytotoxic; settings: 48 h
Summary of the method: (§2)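 Viability is expressed as a percentage of DMSO wells within each plate, and cell-free wells serve as background. Seeding densities in the 1536-well plates (5 μl) were 500 cells/well for NOMO1 or SEM leukemia cells and 1000 cells/well for P12-Ichikawa. Each line was adapted for at least four passages in each medium. Library compounds in DMSO were pin-dosed at 47 μM to 0.79 nM (11 points, threefold), and CellTiter-Glo One luminescence was read after 48 h at 37°C.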

NOMO1 [5] = assay: as above; settings: RPMI 5 mM glucose + 10% FBS, 48 h
Summary of the method: as §2

SEM cells [6] = assay: as above; settings: RPMI 5 mM glucose + 10% dialyzed FBS, 48 h
Summary of the method: as §2

CC(=O)OC[C@@H]1O[C@H]([C@H](OC(C)=O)[C@@H]1OC(C)=O)N2\C=C/C(=O)NC2=O
Settings | AUC of viability dose-response curve | cell viability [%]
NOMO1 [2], HPLM + 10% dialyzed FBS | 429 | –
NOMO1 [2], RPMI 5 mM glucose + 10% FBS | 440 | –
NOMO1 [2], RPMI 5 mM glucose + 10% dialyzed FBS | 443 | –
NOMO1 [5], 0.000781 µM | – | 107
NOMO1 [5], 0.00234 µM | – | 117
NOMO1 [5], 0.00702 µM | – | 115
NOMO1 [5], 0.0211 µM | – | 117
NOMO1 [5], 0.0632 µM | – | 125
NOMO1 [5], 0.19 µM | – | 121
NOMO1 [5], 0.569 µM | – | 102
NOMO1 [5], 1.71 µM | – | 111
NOMO1 [5], 5.12 µM | – | 105
NOMO1 [5], 15.4 µM | – | 82.9
NOMO1 [5], 46.1 µM | – | 22.6
P12-Ichikawa [1], HPLM + 10% dialyzed FBS | 461 | –
P12-Ichikawa [1], RPMI 5 mM glucose + 10% FBS | 444 | –
P12-Ichikawa [1], RPMI 5 mM glucose + 10% dialyzed FBS | 457 | –
SEM cells [3], HPLM + 10% dialyzed FBS | 448 | –
SEM cells [3], RPMI 5 mM glucose + 10% FBS | 462 | –
SEM cells [3], RPMI 5 mM glucose + 10% dialyzed FBS | 456 | –
SEM cells [6], 0.000781 µM | – | 118
SEM cells [6], 0.00234 µM | – | 109
SEM cells [6], 0.00702 µM | – | 137
SEM cells [6], 0.0211 µM | – | 119
SEM cells [6], 0.0632 µM | – | 114
SEM cells [6], 0.19 µM | – | 143
SEM cells [6], 0.569 µM | – | 113
SEM cells [6], 1.71 µM | – | 112
SEM cells [6], 5.12 µM | – | 122
SEM cells [6], 15.4 µM | – | 108
SEM cells [6], 46.1 µM | – | 93.9

cell viability [%], P12-Ichikawa [4]
Settings | HPLM + 10% dialyzed FBS | RPMI 5 mM glucose + 10% FBS | RPMI 5 mM glucose + 10% dialyzed FBS
0.000781 µM | 119 | 121 | 120
0.00234 µM | 120 | 117 | 106
0.00702 µM | 128 | 121 | 116
0.0211 µM | 122 | 116 | 111
0.0632 µM | 114 | 117 | 111
0.19 µM | 120 | 108 | 111
0.569 µM | 110 | 102 | 111
1.71 µM | 110 | 113 | 108
5.12 µM | 113 | 108 | 99.7
15.4 µM | 106 | 114 | 104
46.1 µM | 71.8 | 98.3 | 92
